Consider 10 compounds from PubChem BioAssay (NCI).

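Test compounds were applied to cells in 96-well plates for 48 hours at 5 doses. TGI marks complete inhibition of growth.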

Some test systems named below: HL-60(TB) leukemia; UO-31 renal; U251 CNS; K-562 leukemia; ACHN renal; UACC-62 melanoma; UACC-257 melanoma; NCI-H226 lung; OVCAR-8 ovarian; NCI/ADR-RES ovarian.
Assay in all cases: growth of human tumour cells (NCI), 48 h

Consider `c1ccc(N=C2c3ccsc3C(=Nc3ccccc3)c3ccsc32)cc1`, for which the TGI in the test with HL-60(TB) leukemia came out at 4.2 µM; in the test with UO-31 renal, 3.74 µM; with U251 CNS it was 4.01 µM; with K-562 leukemia, 10.4 µM; in the test on ACHN renal, 3.04 µM; in the test with UACC-62 melanoma, 3.9 µM. The TGI came to 2.67 µM in the test on UACC-257 melanoma, 11.4 µM with NCI-H226 lung, 5.68 µM in the test with OVCAR-8 ovarian and 14.4 µM with NCI/ADR-RES ovarian.
With `COc1cccc(C(=O)C#Cc2cnc(OC)nc2OC)c1`, the TGI in the test on HL-60(TB) leukemia is 5.92 µM; in the test on UO-31 renal it was 2.67 µM; in the test with U251 CNS it was 7.27 µM; in the test with K-562 leukemia, greater than 100 µM; with ACHN renal, 3.5 µM; in the test on UACC-62 melanoma, 3.08 µM. The TGI with UACC-257 melanoma stood at 6.42 µM; with NCI-H226 lung, 2.75 µM; in the test on OVCAR-8 ovarian, 3.88 µM; in the test on NCI/ADR-RES ovarian it was 4.83 µM.
Take `O=C(c1ccco1)N(C(=O)N1CCN(c2ccccc2)CC1)S(=O)(=O)c1ccccc1`: the TGI in the test on HL-60(TB) leukemia was 45.1 µM; in the test on UO-31 renal it was 53.6 µM; in the test with U251 CNS it was 72.2 µM; in the test with K-562 leukemia, greater than 100 µM; with ACHN renal, 62.7 µM; in the test on UACC-62 melanoma it was 82 µM. The TGI in the test with UACC-257 melanoma is greater than 100 µM; with NCI-H226 lung, greater than 100 µM; in the test on OVCAR-8 ovarian, greater than 100 µM; with NCI/ADR-RES ovarian, 55.1 µM.
For the compound `C[N+](C)(C)c1ncnc2c1ncn2C1CCCO1` (stereo not given), the TGI with HL-60(TB) leukemia, in the test on UO-31 renal, with U251 CNS, in the test on K-562 leukemia, in the test on ACHN renal and in the test with UACC-62 melanoma was greater than 100 µM in each case. Moreover, the TGI in the test with UACC-257 melanoma, with NCI-H226 lung, in the test with OVCAR-8 ovarian and in the test with NCI/ADR-RES ovarian was greater than 100 µM in each case.
Take `COC(=O)C(Cc1c[nH]c2ccccc12)N=C1Nc2ccncc2S(=O)(=O)N1c1cccc(OC(C)C)c1` (stereo not given): the TGI was 59.3 µM with HL-60(TB) leukemia; greater than 100 µM in the test with UO-31 renal; greater than 100 µM with U251 CNS; greater than 100 µM in the test with K-562 leukemia; greater than 100 µM in the test with ACHN renal; greater than 100 µM in the test on UACC-62 melanoma. Further, the TGI in the test on UACC-257 melanoma, in the test with NCI-H226 lung, with OVCAR-8 ovarian and in the test on NCI/ADR-RES ovarian was greater than 100 µM throughout.
On to `COc1ccc(C2=NOC(N)(c3ccc(OC)cc3)C2)cc1` (stereo not given), for which the TGI in the test with HL-60(TB) leukemia, in the test on UO-31 renal, with U251 CNS, in the test with K-562 leukemia, with ACHN renal and in the test with UACC-62 melanoma was greater than 100 µM each time. Also, the TGI in the test with UACC-257 melanoma, in the test on NCI-H226 lung, in the test with OVCAR-8 ovarian and with NCI/ADR-RES ovarian was greater than 100 µM in each case.
In the case of `N#C/C(C(=S)NCc1ccccc1)=C(/N)N1CCCC1`, the TGI in the test on HL-60(TB) leukemia, in the test on UO-31 renal, in the test with U251 CNS, with K-562 leukemia, in the test with ACHN renal and in the test on UACC-62 melanoma was greater than 100 µM throughout. Further, the TGI in the test with UACC-257 melanoma, with NCI-H226 lung, with OVCAR-8 ovarian and in the test on NCI/ADR-RES ovarian was greater than 100 µM each time.
Consider `N#Cc1nc(C#N)n(S(=O)(=O)c2ccccc2)c1NS(=O)(=O)c1ccccc1`, for which the TGI in the test on HL-60(TB) leukemia was greater than 100 µM; in the test on UO-31 renal, 79.6 µM; in the test with U251 CNS it was greater than 100 µM; with K-562 leukemia it was greater than 100 µM; with ACHN renal, greater than 100 µM; in the test with UACC-62 melanoma, greater than 100 µM. Further, the TGI in the test with UACC-257 melanoma, in the test with NCI-H226 lung, in the test on OVCAR-8 ovarian and in the test with NCI/ADR-RES ovarian was greater than 100 µM in each case.
As to `O=C1Cc2c([nH]c3ccc(C(=O)O)cc23)-c2ccccc2N1`, the TGI with HL-60(TB) leukemia, in the test with UO-31 renal, in the test with U251 CNS, with K-562 leukemia, with ACHN renal and in the test with UACC-62 melanoma was greater than 100 µM in each case. In addition, the TGI with UACC-257 melanoma, with NCI-H226 lung, in the test on OVCAR-8 ovarian and in the test on NCI/ADR-RES ovarian was greater than 100 µM each time.
`O=c1[nH]nc(-c2ccccc2)n1O`: the TGI in the test on HL-60(TB) leukemia, in the test on UO-31 renal, in the test with U251 CNS, in the test with K-562 leukemia, in the test with ACHN renal and in the test with UACC-62 melanoma was greater than 100 µM in each case. Also, the TGI in the test with UACC-257 melanoma, with NCI-H226 lung, in the test with OVCAR-8 ovarian and in the test with NCI/ADR-RES ovarian was greater than 100 µM throughout.
